According to patent publication US20210221848A1, “POLYMYXIN DERIVATIVES AND THEIR USE IN COMBINATION THERAPY TOGETHER WITH DIFFERENT ANTIBIOTICS” (priority 2014, published 2021):
Converted amounts (≈) assume the structure as drawn. Like-named read-outs stand apart in the source and are kept apart here. Numbered stars: 1 amine (or outer) side, 2 acyl side, 3 side chain; on linkers, the order of the positions; unused ones are H or OH. Bridge positions count the residues as written; N and C are the ends. Square brackets hold non-standard residues; d marks the D form. Peptide text beside a SMILES is read from it. X7 = CC(C)CN([C@@H](CN)C(=O)[*:2])[*:1]; aThr = C[C@H](O)[C@H](N)C(=O)O; Dab = NCC[C@H](N)C(=O)O

What was measured:
HK-2 cell line = test: In vitro renal cell toxicity assay (resazurin reduction)
Procedure: MICs were determined as described herein. HK-2 cell IC50 values were determined as described herein. Values are reported relative to Polymyxin B.

K. pneumoniae [1] = tested on: K. pneumoniae
E. coli [2] = tested on: E. coli
A. baumannii [3] = tested on: A. baumannii
E. coli [4] = test: MIC in the presence of a fixed concentration (2 μg/mL) of Rifampicin; format: cell-based, Escherichia coli; conditions: Rifampicin 2 μg/mL, Table 5D
K. pneumoniae [5] = test: as above; format: cell-based, Klebsiella pneumoniae; conditions: Rifampicin 2 μg/mL, Table 5D
Procedure: (§1) The inoculum was prepared by making a direct suspension of isolated colonies (selected from an 18-24 hour Mueller-Hinton agar plate) adjusted to the 0.5 McFarland standard. […] The assays were performed in duplicate. […] In cases where the duplicate values varied by less than 2-fold, the lower of the two values is reported. If a variation of greater than 2-fold was observed, the assay was considered non-valid. Several of the compounds were subjected to multiple tests, and where this is the case, the MIC reflects the modal value obtained.

A. baumannii [6] = test: MIC in the presence of […] of rifampicin; format: cell-based, Acinetobacter baumannii
Procedure: as §1

[7] = tested on: A. baumanii strains with elevated MICs to Polymyxin B; test: MIC against strains with elevated MICs to Polymyxin B; format: cell-based, Acinetobacter baumannii; conditions: Table 6D
Method in brief: (§2)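 Duplicate runs; >2-fold disagreement = invalid, <2-fold = lower value kept. Inoculum: colonies (18-24 h Mueller-Hinton agar) suspended directly to 0.5 McFarland. Multiple tests → modal MIC.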

[8] = tested on: K. pneumoniae strains with elevated MICs to Polymyxin B; test: as above; format: cell-based, Klebsiella pneumoniae; conditions: Table 6D
Method in brief: as §2

[9] = tested on: P. aeruginosa strains with elevated MICs to Polymyxin B; test: as above; format: cell-based, Pseudomonas aeruginosa; conditions: Table 6D
Method in brief: as §2

[10] = tested on: E. coli strains with elevated MICs to Polymyxin B; test: as above; format: cell-based, Escherichia coli; conditions: Table 6D
Method in brief: as §2

[11] = absence of a second agent, Table 6B

| Compound | HK-2 IC50 rel to PMB (HK-2 cell line) | MIC, K. pneumoniae ATCC 4352 (K. pneumoniae [1]; [11]) | MIC, K. pneumoniae ATCC BAA-2146 (K. pneumoniae [1]; [11]) | MIC, E. coli ATCC 25922 (E. coli [2]; [11]) | MIC, E. coli NCTC 13441 (E. coli [2]; [11]) | MIC, P. aeruginosa ATCC 27853 (P. aeruginosa; [11]) | MIC, P. aeruginosa CCUG 59347 (P. aeruginosa; [11]) | MIC, A. baumannii ATCC BAA-747 (A. baumannii [3]; [11]) | MIC, A. baumannii NCTC 13424 (A. baumannii [3]; [11]) | HK-2 IC50 rel to PMB* (HK-2 cell line) | MIC, K. pneumoniae ATCC 4352 (K. pneumoniae [1]; sole activity, Table 6C) | MIC, K. pneumoniae ATCC BAA-2146 (K. pneumoniae [1]; sole activity, Table 6C) | MIC, E. coli ATCC 25922 (E. coli [2]; sole activity, Table 6C) | MIC, E. coli NCTC 13441 (E. coli [2]; sole activity, Table 6C) | MIC, P. aeruginosa ATCC 27853 (P. aeruginosa; sole activity, Table 6C) | MIC, P. aeruginosa CCUG 59347 (P. aeruginosa; sole activity, Table 6C) | MIC, A. baumannii ATCC BAA-747 (A. baumannii [3]; sole activity, Table 6C) | MIC, A. baumannii NCTC 13424 (A. baumannii [3]; sole activity, Table 6C) | also measured |
| --- | --- | --- | --- | --- | --- | --- | --- | --- | --- | --- | --- | --- | --- | --- | --- | --- | --- | --- | --- |
| trans-4-(2- methylpropyl) pyrrolidine-3-carbonyl polymyxin B nonapeptide [Example D38] | 6.3 | 4 micrograms/mL | 8 micrograms/mL | 8 micrograms/mL | 8 micrograms/mL | 1 micrograms/mL | 2 micrograms/mL | >8 micrograms/mL | 2 micrograms/mL |  |  |  |  |  |  |  |  |  |  |
| CC(C)CN[C@@H](CN)C(=O)N[C@H](C(=O)N[C@@H](CCN)C(=O)N[C@H]1CCNC(=O)[C@H]([C@@H](C)O)NC(=O)[C@H](CCN)NC(=O)[C@H](CCN)NC(=O)[C@H](CC(C)C)NC(=O)[C@@H](Cc2ccccc2)NC(=O)[C@H](CCN)NC1=O)[C@H](C)O [Example D51, (S)-2-(2-methylpropylamino) 3-aminopropanoyl polymyxin B nonapeptide] (H-[X7][aThr][Dab][Dab][Dab][dF]L[Dab][Dab]T; lactam 4-C) | 34 |  |  |  |  |  |  |  |  |  |  |  |  |  |  |  |  |  | MIC (E. coli [2]): 0.5 µg/mL (≈ 0.452 µM); MIC (A. baumannii [3]): 1 µg/mL (≈ 0.905 µM) |
| (S)-1-(2- methylpropyl)- piperazine-2- carbonyl polymyxin E nonapeptide [Example D56] |  |  |  |  |  |  |  |  |  | 22 | 0.125 micrograms/mL | 0.25 micrograms/mL | 0.25 micrograms/mL | 0.25 micrograms/mL | 0.5 micrograms/mL | 1 micrograms/mL | 0.5 micrograms/mL | 0.5 micrograms/mL |  |
| 3-Amino-2- benzylpropanoylpoly- myxin B nonapeptide [Example D5] | 15.3 | 8 micrograms/mL | >8 micrograms/mL | 8 micrograms/mL | >8 micrograms/mL | 1 micrograms/mL | >8 micrograms/mL | >8 micrograms/mL | >8 micrograms/mL |  |  |  |  |  |  |  |  |  | MIC in combination with Rifampicin, E. coli ATCC 25922 (E. coli [4]; E. coli ATCC 25922): 0.03 micrograms/mL; MIC in combination with Rifampicin, E. coli NCTC 13441 (E. coli [4]; E. coli NCTC 13441): 0.06 micrograms/mL; MIC in combination with Rifampicin, K. pneumoniae ATCC 4352 (K. pneumoniae [5]; K. pneumoniae ATCC 4352): 0.03 micrograms/mL; MIC in combination with Rifampicin, K. pneumoniae ATCC BAA-2146 (K. pneumoniae [5]; K. pneumoniae ATCC BAA-2146): 0.25 micrograms/mL; MIC in combination with Rifampicin, A. baumannii ATCC BAA-747 (A. baumannii [6]; A. baumannii ATCC BAA-747, Table 5D): 0.25 micrograms/mL; MIC in combination with Rifampicin, A. baumannii NCTC 13424 (A. baumannii [6]; A. baumannii NCTC 13424, Table 5D): ≤0.015 micrograms/mL |
| trans-4-(2- methylpropyl) pyrrolidine-3- carbonyl-L-Thr- L-Dap-polymyxin B heptapeptide [Example D68] |  |  |  |  |  |  |  |  |  | 5.3 | 0.125 micrograms/mL |  | 0.25 micrograms/mL | 0.25 micrograms/mL | 0.5 micrograms/mL | 0.5 micrograms/mL | 0.25 micrograms/mL | 0.5 micrograms/mL | MIC A. baumannii 053 ([7]; strain 053, elevated MIC to Polymyxin B): >256 micrograms/mL; MIC A. baumannii 056 ([7]; strain 056, elevated MIC to Polymyxin B): 128 micrograms/mL; MIC A. baumannii 068 ([7]; strain 068, elevated MIC to Polymyxin B): 16 micrograms/mL; MIC K. pneumoniae 062 ([8]; strain 062, elevated MIC to Polymyxin B): 64 micrograms/mL; MIC K. pneumoniae 063 ([8]; strain 063, elevated MIC to Polymyxin B): 64 micrograms/mL; MIC K. pneumoniae 064 ([8]; strain 064, elevated MIC to Polymyxin B): 16 micrograms/mL; MIC P. aeruginosa 065 ([9]; strain 065, elevated MIC to Polymyxin B): 16 micrograms/mL; MIC P. aeruginosa 066 ([9]; strain 066, elevated MIC to Polymyxin B): 16 micrograms/mL; MIC P. aeruginosa 067 ([9]; strain 067, elevated MIC to Polymyxin B): >256 micrograms/mL; MIC E. coli 058 ([10]; strain 058, elevated MIC to Polymyxin B): 8 micrograms/mL; MIC E. coli 059 ([10]; strain 059, elevated MIC to Polymyxin B): 16 micrograms/mL; MIC E. coli 060 ([10]; strain 060, elevated MIC to Polymyxin B): 8 micrograms/mL; MIC E. coli 061 ([10]; strain 061, elevated MIC to Polymyxin B): 32 micrograms/mL |
| 2-aminomethyl- 4-methyl pentanoyl polymyxin E nonapeptide [Example D53] |  |  |  |  |  |  |  |  |  | 18.2 | 0.25 micrograms/mL | 1 micrograms/mL | 1 micrograms/mL | 1 micrograms/mL | 0.5 micrograms/mL | 1 micrograms/mL | 1 micrograms/mL | 2 micrograms/mL |  |
